From PubChem BioAssay AID179 (DTP/NCI, 2004)
Several values for one entry are separate records, joined by “and”; a condition that tells them apart may be missing. Identical values can stand only once. Activity calls are given as the source filed them.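 How the source made its calls: active means compounds giving half or more protection of infected cells from virus-caused growth loss, again on retest; inactive means the rest.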

System: CEM cells HIV-1 protection, formazan growth assay
Assay: NCI AIDS Antiviral Assay
Conditions: for IC50: measured here: growth of uninfected CEM cells
How it was run: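 Protection of CEM cells against HIV-1 measured as cell growth via soluble formazan read-out, with five concentrations tested on both infected and uninfected cells; failure to protect may reflect toxicity.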

| Compound | EC50 | IC50 | outcome |
| --- | --- | --- | --- |
| CCOC(=O)CN(c1sc(C)c(-c2ccccc2)c1C(=O)OCC)S(=O)(=O)c1ccc(C)cc1 | > 200 µM | 5.13 µM | – |
| COC(=O)C(Cc1ccccc1)NC(=O)c1ccc(CNC(=S)NCc2cccc(CNC(=S)NCc3ccccc3)c2)cc1 (stereo not drawn) | > 200 µM | 148 µM | – |
| CC(=O)C(N=NC1CCC(S(=O)(=O)NB2N=CS2)CC1)C(=O)Nc1ccccc1C (stereo not drawn) | > 11.5 µM | > 11.5 µM | – |
| CN(C)COC(=S)SSSC(=S)OCN(C)C | 0.195 µM | 0.724 µM | – |
| CCN(CC)C(=O)CCN1CC1 | > 200 µM | > 200 µM | – |
| COC(=O)c1onc(-c2c(OC)cc(OC)cc2OC)c1C(=O)OC | > 141 µM | 115 µM | – |
| COc1c(O)cc2c(c1O)C1O[C@H](CO)C(O)[C@H](O)[C@H]1OC2=O (stereo partly drawn) | > 200 µM | > 200 µM | – |
| CC(=O)N1c2ccccc2C2=NN=C(N(C)C)SC21 (stereo not drawn) | – | – | inactive |
| COC(=O)c1ccc(CSc2ccccc2C(=O)O)cc1 | > 603 µM | 427 µM | – |
| CC1=C[C@H]2O[C@@H]3C[C@H]4OC(=O)/C=C\C=C\C(C(C)O)OCC(O)C(C)CC(=O)OC[C@@]2(C[C@@H]1O)[C@]4(C)[C@@]31CO1 (stereo partly drawn) | > 2 µM | 0.0631 µM | – |
| C=CCN(CCN(CC=C)S(=O)(=O)c1ccc(C)cc1)S(=O)(=O)c1ccc(C)cc1 | > 22.4 µM | > 22.4 µM | – |
| O=C(/C(=C/c1ccc(Cl)cc1)c1ccccc1)c1ccccc1 | > 8.51 µM | > 8.51 µM | – |
| C/C=C/C(=O)N1C(=O)OC[C@@H]1c1ccccc1 | > 200 µM | 6.92 µM | – |
| S=C(/C=C1\SC(=Nc2ccccc2)C(=Nc2ccccc2)N1c1ccccc1)Nc1ccccc1 | > 200 µM | > 200 µM | – |
| CC1OC(OC2C(Oc3cc(O)c4c(=O)cc(-c5ccc(O)cc5)oc4c3)OC(CO)C(O)C2O)C(O)C(O)C1O (stereo not drawn) | > 427 µM | > 427 µM | – |
| Cc1cccc2c1C(=O)[C@](C)([C@]1(C)Nc3cccc(C)c3C1=O)N2 | > 200 µM | 17.4 µM | – |
| CC(C)=CCCC1(C)C2COC(=O)C21 (stereo not drawn) | > 200 µM | 70.8 µM and 15.1 µM | – |
| COC1CC(OC)C2OC(c3ccccc3)OCC2O1 (stereo not drawn) | – | – | inactive |
| Oc1cc(O)cc(-c2c(O)cc(O)cc2O)c1 | > 200 µM | 145 µM | – |
| CN1CCN(C)C12C=c1ccccc1=CC21CC1 | – | – | inactive |
| O=C1CCCC12CCOC2=O (stereo not drawn) | > 1620 µM | > 1620 µM | – |

| Compound | EC50 | IC50 | outcome |
| --- | --- | --- | --- |
| CC1=CC(C)(C)N=C2SC(COc3ccccc3)=NN12 | > 200 µM | 34.7 µM | – |
| Cc1cc(S(=O)(=O)Nc2n[nH]c(=O)n2-c2ccccc2)c(S)cc1Cl | 155 µM | > 200 µM | – |
| CCOc1ccc(NC(=O)CC2C(=O)Nc3ccccc3S2(=O)=O)cc1 (stereo not drawn) | > 19.5 µM | > 19.5 µM | – |
| O=C(O)CSc1n[nH]c(-c2ccccc2)n1 | > 30.9 µM | 7.59 µM | – |
| CS(=O)(=O)c1cnnc2ccccc12 | > 513 µM | > 513 µM | – |
| NCCCCNCCCNC(=O)c1csc(-c2nc(CCN)sc2Cl)n1 | > 302 µM | 18.6 µM | – |
| COc1ccccc1C(=O)NO | > 200 µM | > 200 µM | – |
| O=C1CCCCCN1c1ccccn1 | > 1320 µM | > 1320 µM | – |
| CC1(Br)C(=O)NC(=O)N(C2CC(N=[N+]=[N-])C(CO)O2)C1N=[N+]=[N-] (stereo not drawn) | – | 89.1 µM | active |
| CCC1OC(=O)C(C)C(OC2CC(C)(O)C(O)C(C)O2)C(C)C(O)C(C)(O)CC(C)C(=O)C(C)C(O)C1C (stereo not drawn) | > 229 µM | 21.4 µM | – |
| O=S(=O)(O)NCC1OC2OC3C(CNS(=O)(=O)O)OC(OC4C(CNS(=O)(=O)O)OC(OC5C(CNS(=O)(=O)O)OC(OC6C(CNS(=O)(=O)O)OC(OC7C(CNS(=O)(=O)O)OC(OC8C(CNS(=O)(=O)O)OC(OC1C(OS(=O)(=O)O)C2OS(=O)(=O)O)C(OS(=O)(=O)O)C8OS(=O)(=O)O)C(OS(=O)(=O)O)C7OS(=O)(=O)O)C(OS(=O)(=O)O)C6OS(=O)(=O)O)C(OS(=O)(=O)O)C5OS(=O)(=O)O)C(OS(=O)(=O)O)C4OS(=O)(=O)O)C(OS(=O)(=O)O)C3OS(=O)(=O)O (stereo not drawn) | > 50.1 µM | > 50.1 µM | – |
| CCOC(=O)c1ccc(CS(=O)(=O)c2ccc([N+](=O)[O-])cc2)cc1 | > 53.7 µM | > 53.7 µM | – |
| CC(C)(Cc1ccccc1)Cc1cc(O)ccc1O | 1.29 µM | 7.24 µM | – |
| COc1ccc(C2C(=O)c3ccc(OC)cc3OC2c2ccccc2)cc1 (stereo not drawn) | > 200 µM | 87.1 µM | – |
| CC(CC12C=CC3(OO1)C(C)(C)CCCC3(C)O2)OC(=O)c1ccccc1 (stereo not drawn) | > 200 µM | 7.08 µM and 11.2 µM | – |
| CC(C)(C)C1=NC(S)NC(CCC(=O)Nc2ccccc2[N+](=O)[O-])=C1 (stereo not drawn) | > 692 µM | > 692 µM | – |
| Cc1ccc(C(=O)C2CC3(CCC2(O)c2ccc(C)cc2)CC(=O)Nc2ccccc2C3=O)cc1 (stereo not drawn) | > 200 µM | 89.1 µM | – |
| COCCOCCOCCC(=O)NC1CC2CCC1(C)C2(C)C (stereo not drawn) | > 200 µM | > 200 µM | – |
| CC(C)C(=O)/C=C/c1ccccc1 | > 200 µM | 57.5 µM | – |
| CCOc1ccc(/C=C2/NC(=S)N(CN3CCCCC3)C2=O)cc1 | > 200 µM | 72.4 µM | – |
| CCOC(=O)/C(=C\n1c(=O)[nH]c(=O)[nH]c1=S)C(=O)c1ccccc1 | – | – | inactive |

| Compound | EC50 | IC50 | outcome |
| --- | --- | --- | --- |
| N#CCCN(CCC#N)c1ccc(/C=C(/NC(=O)Nc2ccccc2Cl)NC(=O)c2cc([N+](=O)[O-])ccc2Cl)cc1 | > 12.3 µM | 1.91 µM | – |
| O=C1CC(=O)NC(=NN2C(=O)CSC2C(=O)c2ccco2)N1 (stereo not drawn) | 35.5 µM | 575 µM | – |
| Cc1cccc(Cl)c1NC=O | – | – | inactive |
| CC12CCC(=O)N1c1cc([N+](=O)[O-])ccc1N2 (stereo not drawn) | – | – | inactive |
| Cc1cccc2[nH]c3c(c(O)cc4[nH]c5cccc(C)c5c(=O)c43)c(=O)c12 | > 200 µM | 20.9 µM | – |
| Cc1ccc(-c2nn3c(-c4ccccc4)nnc3o2)cc1 | > 200 µM | 132 µM | – |
| COc1ccc(C)cc1-c1ccc(-c2cc(C)ccc2OC)o1 | > 72.4 µM | 58.9 µM | – |
| CCOC(=O)C(=Cc1cccc(Cl)c1)C(=O)OCC | > 91.2 µM | 6.17 µM | – |
| COC(=O)OC[C@H]1O[C@@H](n2cc(C)c(=O)[nH]c2=O)CC1OC(=O)OC (stereo partly drawn) | > 200 µM | > 200 µM | – |
| S=c1[nH]nc(COc2ccc(Cl)cc2)n1-c1ccccc1 | > 200 µM | 30.9 µM | – |
| CC(=O)N1C(=O)/C(=C\C(=O)c2ccc([N+](=O)[O-])cc2)c2ccccc21 | > 200 µM | 2.82 µM | – |
| CCC12CN(C(=O)OC)C3C(Br)C1CCC(=O)C32 (stereo not drawn) | > 200 µM | 178 µM | – |
| Cc1ccc(S(=O)(=O)OC2C3CCC4C(COC42)C3)cc1 (stereo not drawn) | 79.4 µM and 77.6 µM | > 200 µM | – |
| CCCCCn1cnc2c1S(=O)(=O)N(C)C(NC(=O)c1ccccc1)=N2 | > 200 µM | > 200 µM | – |
| CCN(CC)CCN1C=CC(C)C(C(=O)O)C1C(N)=O (stereo not drawn) | > 100 µM | > 100 µM | – |
| O=C(/C=C/c1ccc(C(F)(F)F)cc1)c1c([O-])on[n+]1-c1ccccc1 | – | – | inactive |
| CC(=O)N(C(C)=O)n1c(-c2ccccc2)n[nH]c1=O | > 200 µM | > 200 µM | – |
| CC(=O)N=C1N(/C=C2\C(=O)Oc3ccccc3C2=O)C(=O)/C(=C/c2ccc(NC(C)=O)cc2)N1C | > 200 µM | > 200 µM | – |
| N#Cc1c(-c2ccc(Cl)cc2)c2c(n(C3OC(CO)C(O)C(O)C3O)c1=S)CCCC2 (stereo not drawn) | > 200 µM | 69.2 µM | – |
| COc1ccc(/C=C2\Oc3cc(OC(C)=O)ccc3C2=O)cc1 | > 200 µM | 37.2 µM | – |
| O=C(O)/C(Cl)=C(/Cl)C(=O)Nc1cc(Cl)ccc1Cl | – | – | inactive |

| Compound | EC50 | IC50 | outcome |
| --- | --- | --- | --- |
| COc1cc(C2c3cc4c(cc3OC(N3CCCCC3)C2C)OCO4)cc(OC)c1O (stereo not drawn) | > 200 µM | 7.59 µM | – |
| Cc1nc2c(cnn2C)cc1CCc1ccccc1 | > 200 µM | 33.9 µM | – |
| COC(=O)/C=C/C=C/c1ccc2c(c1OC)C(=O)c1ccccc1C2=O | – | – | inactive |
| N#Cc1c(C#N)c(-c2ccco2)n(-c2ccccc2)c1N | > 200 µM | > 200 µM | – |
| CCc1cccc(C(C)C)c1NC(=O)C(=O)Nn1c(=S)[nH]c2ccccc2c1=O | > 123 µM | > 123 µM | – |
| COC(=O)C12C3C4C5(C(=O)OC)C(C1C35C(=O)N(C(C)C)C(C)C)C42C(=O)N(C(C)C)C(C)C (stereo not drawn) | > 55 µM | > 55 µM | – |
| CC1CCCCCC(=O)c2c(O)cc(O)cc2CC(=O)O1 (stereo not drawn) | > 851 µM | 117 µM | – |
| CCOC1(C)Nc2cc(OC)cc3c2N1C(=O)CCS3 (stereo not drawn) | > 200 µM | 95.5 µM | – |
| CC(C)CCC[C@@H](C)C1CCC2[C@@H]3CCC4C[C@H](CCC=C(c5cc(Cl)c(O)c(C(=O)O)c5)c5cc(Cl)c(O)c(C(=O)O)c5)CC[C@]4(C)C3CC[C@@]21C (stereo partly drawn) | 35.5 µM | > 200 µM | – |
| COC(=O)C1C=CCON2CCc3c(n(S(=O)(=O)c4ccccc4)c4ccccc34)C12 (stereo not drawn) | > 22.9 µM | > 22.9 µM | – |
| CC[N+](C)(C)Cc1ccccc1Br | > 200 µM | 182 µM | – |
| Cc1ccc(/C=C2\Cc3c(C)cc(C)cc3C2=O)c(C(=O)O)c1 | > 200 µM | 85.1 µM | – |
| O=C(O)CC(NC(=O)/C(=C/c1ccccc1)NC(=O)c1ccccc1)C(=O)O (stereo not drawn) | > 200 µM | > 200 µM | – |
| N#CC(c1ccccc1)(c1ccccc1)[C@@H](c1ccccc1)[C@H](Cc1ccccc1)NS(=O)(=O)c1ccccc1 | > 200 µM | > 200 µM | – |
| NC(=S)N/N=C1\CCCC\C1=N/NC(N)=S | > 200 µM | 17.8 µM | – |
| O=C(O)CCCCCCCCCCCO | > 200 µM | > 200 µM | – |
| O=C1C2CN(Cc3ccccc3)CC2C(=O)N1c1ccccc1 (stereo not drawn) | > 200 µM | > 200 µM | – |
| COc1ccc([C@]23CCN(S(=O)(=O)c4ccc(C)cc4)[C@H]2[C@H](CO)C2(CC3)OCC(C)(C)CO2)cc1OC | > 100 µM | 87.1 µM | – |
| CC1OC(OC2C(Oc3cc(O)c4c(c3)OC(c3ccc(O)cc3)CC4=O)OC(CO)C(O)C2O)C(O)C(O)C1O (stereo not drawn) | > 200 µM | > 200 µM | – |
| COCn1c(C)c(C)c2c(=O)oc(C)nc21 | > 200 µM | > 200 µM | – |
| COc1ccc(-c2cc3ccccc3[nH]c2=O)cc1OC | – | – | inactive |
